From paper PMC10367051, “Comprehensive Mechanistic View of the Hydrolysis of Oxadiazole-Based Inhibitors by Histone Deacetylase 6 (HDAC6)” (ACS Chemical Biology, 2023)

Tests used:
HDAC10 = target: T1, HDAC10 (Homo sapiens, UniProt Q969S8); assay: HDAC10 inhibition assay (HPLC readout); type: biochemical; conditions: purified human protein, fluorescein-labeled N8-acetylspermidine substrate, 15 min preincubation
T1 construct: made in house; host or cells: HEK293/T17
T1 sequence (Q969S8 1-669): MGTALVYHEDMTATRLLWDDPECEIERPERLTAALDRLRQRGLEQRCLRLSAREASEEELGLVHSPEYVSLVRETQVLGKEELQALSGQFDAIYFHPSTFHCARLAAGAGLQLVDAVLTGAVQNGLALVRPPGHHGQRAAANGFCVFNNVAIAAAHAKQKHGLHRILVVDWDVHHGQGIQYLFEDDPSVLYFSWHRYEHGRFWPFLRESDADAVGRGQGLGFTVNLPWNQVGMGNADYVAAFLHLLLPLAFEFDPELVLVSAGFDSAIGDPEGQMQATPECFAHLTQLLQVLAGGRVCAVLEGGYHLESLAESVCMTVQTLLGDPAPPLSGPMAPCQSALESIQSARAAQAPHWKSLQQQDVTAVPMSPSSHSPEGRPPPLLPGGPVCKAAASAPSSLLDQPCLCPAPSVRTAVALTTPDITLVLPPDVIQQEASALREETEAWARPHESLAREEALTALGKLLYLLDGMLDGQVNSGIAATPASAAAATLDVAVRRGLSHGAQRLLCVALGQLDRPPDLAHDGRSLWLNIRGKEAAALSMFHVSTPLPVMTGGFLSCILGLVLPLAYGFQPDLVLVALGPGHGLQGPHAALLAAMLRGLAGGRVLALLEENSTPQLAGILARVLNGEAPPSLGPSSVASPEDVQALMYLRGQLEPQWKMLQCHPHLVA
Protocol: Large-scale expression of recombinant human HDACs was carried out as described previously.[32],[37] Briefly, HEK293/T17 cells were transiently transfected with expression pMM222 plasmids comprising N-terminally tagged (TwinStrep-FLAG-HALO tag; Figure S1) HDAC genes using linear poly(ethyleneimine) (PEI, Polysciences Inc.). Cells were harvested three days post-transfection, and cell pellets were resuspended in the lysis buffer (100 mM Tris-HCl, 10 mM NaCl, 5 mM KCl, 2 mM MgCl2, and 10% glycerol at pH 8.0). Cells were disrupted by sonication, cell lysates were cleared by centrifugation, and soluble fusion proteins were first purified by Streptactin affinity chromatography (IBA). For all HDACs but HDACs 1, 10, and 11, the N-terminal tag was cleaved off overnight by the addition of TEV protease (10:1 HDAC/TEV ratio). […]
(§1) Optimized fluorometric assays were used to determine inhibition constants of studied compounds against individual HDAC isoforms as described previously.[32] […] Deacetylation reactions were monitored either by high-performance liquid chromatography (HPLC) (HDAC10) or by quantification of released AMC (λex/λem = 365/440 nm) using a CLARIOstar plate reader (BMG Labtech GmbH).

zHDAC6 (WT) = target: T2, zHDAC6 (WT) (Danio rerio, UniProt F8W4B7); assay: Inhibition assay, zebrafish HDAC6 catalytic DD2 domain, wild type; type: biochemical
T2 construct: Danio rerio HDAC6 (amino acids 440–798; zHDAC6); His (N, cleaved yes); MBP (N, cleaved yes); made in house; host or cells: RIPL Escherichia coli
T2 sequence (F8W4B7 440-798): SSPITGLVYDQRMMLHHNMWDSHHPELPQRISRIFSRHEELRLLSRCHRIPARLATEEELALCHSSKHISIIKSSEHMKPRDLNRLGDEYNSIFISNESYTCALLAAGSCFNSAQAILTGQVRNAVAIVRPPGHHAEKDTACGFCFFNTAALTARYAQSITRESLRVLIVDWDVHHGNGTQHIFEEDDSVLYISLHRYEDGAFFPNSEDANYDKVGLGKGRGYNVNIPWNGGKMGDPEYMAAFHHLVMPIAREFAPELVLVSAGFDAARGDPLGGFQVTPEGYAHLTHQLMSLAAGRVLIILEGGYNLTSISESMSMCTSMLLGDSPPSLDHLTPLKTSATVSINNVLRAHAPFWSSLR
Protocol: The second catalytic domain of Danio rerio HDAC6 (amino acids 440–798; zHDAC6) was expressed in RIPL Escherichia coli as described previously using the pEC566-zHDAC6 expression vector.[16],[38] Briefly, bacteria were incubated at 37 °C with shaking (250 rpm) until the optical density reached an OD600 = 0.5. Then, the culture was cooled to 18 °C for 1 h, and recombinant protein expression was induced by the addition of 75 μM isopropyl β-D-1-thiogalactopyranoside together with 200 μM ZnSO4. The culture was grown at 18 °C for an additional 18 h and harvested by centrifugation at 5500g for 15 min. The cell pellet was resuspended in the lysis buffer (50 mM phosphate, 300 mM NaCl, 10% glycerol, and 20 mM imidazole at pH 8; 5 mL g^–1 bacterial pellet) and lysed by three passages through EmulsiFlex (Avestin). Cell lysates were centrifuged (15,000g at 4 °C for 20 min), and the fusion protein in the supernatant was purified via Ni-NTA chromatography. […] The purity of protein preparations was monitored by SDS-PAGE (Figure S2).
as §1

| Compound | IC50 (HDAC10) [µM] | IC50 (zHDAC6 (WT)) [µM] |
| --- | --- | --- |
| CS(=O)(=O)N(Cc1ccc(-c2nnc(C(F)F)o2)cn1)c1cccc(Cl)c1 [compound 8] | > 20 |  |
| CS(=O)(=O)N(Cc1ccc(-c2nnc(C(F)(F)F)o2)cn1)c1cccc(Cl)c1 [compound 7] | > 20 |  |
| CS(=O)(=O)N(Cc1ccc(C(=O)NN)cn1)c1cccc(Cl)c1 [compound 4] |  | 3.87 ± 1.64 |
| CS(=O)(=O)N(Cc1ccc(C(=O)NNC(=O)C(F)F)cn1)c1cccc(Cl)c1 [compound 6] |  | 41.7 |
